{
  "source": "paper PMC12010937",
  "about": "“Evaluation of FXR Activity in Pollutants Identified in Sewage Sludge and Subsequent in Vitro and in Vivo Characterization of Metabolic Effects of Triphenyl Phosphate” (Environmental Health Perspectives, 2025)",
  "tested_on": "C57BL/6N mice",
  "details": "TPHP-L group, liver",
  "key": {"[1]": {"details": "adduct [M+Na]+, first of two TG 52:3 lines"}, "[2]": {"details": "adduct [M+Na]+, second of two TG 52:3 lines"}},
  "note": "Read-outs that look alike come from different tables or passages of the source.",
  "data": [
    {"smiles": "O=P(Oc1ccccc1)(Oc1ccccc1)Oc1ccccc1", "note": "[TPHP, triphenyl phosphate]", "values": [
      {"measurement": "Z-score of CAR 6:0", "setting": "adduct [M+H]+", "result": 0.06},
      {"measurement": "Z-score of CAR 10:0", "setting": "adduct [M+H]+", "result": 0.42},
      {"measurement": "Z-score of CAR 12:0", "setting": "adduct [M+H]+", "result": 0.80},
      {"measurement": "Z-score of CAR 16:2", "setting": "adduct [M+H]+", "result": -0.06},
      {"measurement": "Z-score of CAR 18:2", "setting": "adduct [M+H]+", "result": -0.03},
      {"measurement": "Z-score of CAR 18:4", "setting": "adduct [M+H]+", "result": 0.78},
      {"measurement": "Z-score of CAR 20:4", "setting": "adduct [M+H]+", "result": 0.82},
      {"measurement": "Z-score of NAE 14:0", "setting": "adduct [M+H]+", "result": -0.48},
      {"measurement": "Z-score of NAE 20:5", "setting": "adduct [M+H]+", "result": 1.00},
      {"measurement": "Z-score of PC 40:6", "setting": "adduct [M+H]+", "result": -0.17},
      {"measurement": "Z-score of PS 36:4", "setting": "adduct [M+H]+", "result": 0.68},
      {"measurement": "Z-score of SM 27:5;O2", "setting": "adduct [M+H]+", "result": 0.55},
      {"measurement": "Z-score of SM 28:3;O3", "setting": "adduct [M+H]+", "result": 0.44},
      {"measurement": "Z-score of SM 31:3;O3", "setting": "adduct [M+H]+", "result": -0.11},
      {"measurement": "Z-score of SM 41:2;O2", "setting": "adduct [M+H]+", "result": 0.71},
      {"measurement": "average intensity of CAR 6:0", "setting": "adduct [M+H]+", "result": 2396721},
      {"measurement": "average intensity of CAR 10:0", "setting": "adduct [M+H]+", "result": 1504841},
      {"measurement": "average intensity of CAR 12:0", "setting": "adduct [M+H]+", "result": 2823213},
      {"measurement": "average intensity of CAR 16:2", "setting": "adduct [M+H]+", "result": 1645671},
      {"measurement": "average intensity of CAR 18:2", "setting": "adduct [M+H]+", "result": 11661319},
      {"measurement": "average intensity of CAR 18:4", "setting": "adduct [M+H]+", "result": 10920113},
      {"measurement": "average intensity of CAR 20:4", "setting": "adduct [M+H]+", "result": 36994205},
      {"measurement": "average intensity of NAE 14:0", "setting": "adduct [M+H]+", "result": 681808},
      {"measurement": "average intensity of NAE 20:5", "setting": "adduct [M+H]+", "result": 53457329},
      {"measurement": "average intensity of PC 40:6", "setting": "adduct [M+H]+", "result": 25730542},
      {"measurement": "average intensity of PS 36:4", "setting": "adduct [M+H]+", "result": 1577436},
      {"measurement": "average intensity of SM 27:5;O2", "setting": "adduct [M+H]+", "result": 18375860},
      {"measurement": "average intensity of SM 28:3;O3", "setting": "adduct [M+H]+", "result": 1750893},
      {"measurement": "average intensity of SM 31:3;O3", "setting": "adduct [M+H]+", "result": 1688236},
      {"measurement": "average intensity of SM 41:2;O2", "setting": "adduct [M+H]+", "result": 9894007},
      {"measurement": "Z-score of BMP 25:4", "setting": "adduct [M+NH4]+", "result": -0.15},
      {"measurement": "Z-score of BMP 30:5", "setting": "adduct [M+NH4]+", "result": -0.42},
      {"measurement": "Z-score of BMP 38:4", "setting": "adduct [M+NH4]+", "result": -0.33},
      {"measurement": "Z-score of PG 21:2", "setting": "adduct [M+NH4]+", "result": -0.09},
      {"measurement": "Z-score of PI 39:10", "setting": "adduct [M+NH4]+", "result": -0.15},
      {"measurement": "Z-score of TG 48:11", "setting": "adduct [M+NH4]+", "result": -0.30},
      {"measurement": "Z-score of TG 55:4", "setting": "adduct [M+NH4]+", "result": -0.04},
      {"measurement": "average intensity of BMP 25:4", "setting": "adduct [M+NH4]+", "result": 28243710},
      {"measurement": "average intensity of BMP 30:5", "setting": "adduct [M+NH4]+", "result": 997136},
      {"measurement": "average intensity of BMP 38:4", "setting": "adduct [M+NH4]+", "result": 9007436},
      {"measurement": "average intensity of PG 21:2", "setting": "adduct [M+NH4]+", "result": 4648685},
      {"measurement": "average intensity of PI 39:10", "setting": "adduct [M+NH4]+", "result": 2117103},
      {"measurement": "average intensity of TG 48:11", "setting": "adduct [M+NH4]+", "result": 18422444},
      {"measurement": "average intensity of TG 55:4", "setting": "adduct [M+NH4]+", "result": 5767515},
      {"measurement": "Z-score of Cer 42:1;O2", "setting": "adduct [M+Na]+", "result": -0.14},
      {"measurement": "Z-score of Cer 64:6;O2", "setting": "adduct [M+Na]+", "result": 0.49},
      {"measurement": "Z-score of DG 19:1", "setting": "adduct [M+Na]+", "result": -0.58},
      {"measurement": "Z-score of DG 26:5", "setting": "adduct [M+Na]+", "result": -0.57},
      {"measurement": "Z-score of DG 26:6", "setting": "adduct [M+Na]+", "result": -0.39},
      {"measurement": "Z-score of PC 29:5", "setting": "adduct [M+Na]+", "result": -0.26},
      {"measurement": "Z-score of PC 38:6", "setting": "adduct [M+Na]+", "result": -0.37},
      {"measurement": "Z-score of PC 42:9", "setting": "adduct [M+Na]+", "result": -0.33},
      {"measurement": "Z-score of PS 40:7", "setting": "adduct [M+Na]+", "result": 0.24},
      {"measurement": "Z-score of TG 52:2", "setting": "adduct [M+Na]+", "result": 0.37},
      {"measurement": "Z-score of TG 52:4", "setting": "adduct [M+Na]+", "result": 0.20},
      {"measurement": "average intensity of Cer 42:1;O2", "setting": "adduct [M+Na]+", "result": 2208919},
      {"measurement": "average intensity of Cer 64:6;O2", "setting": "adduct [M+Na]+", "result": 16081083},
      {"measurement": "average intensity of DG 19:1", "setting": "adduct [M+Na]+", "result": 5508},
      {"measurement": "average intensity of DG 26:5", "setting": "adduct [M+Na]+", "result": 1202226},
      {"measurement": "average intensity of DG 26:6", "setting": "adduct [M+Na]+", "result": 565410},
      {"measurement": "average intensity of PC 29:5", "setting": "adduct [M+Na]+", "result": 8118187},
      {"measurement": "average intensity of PC 38:6", "setting": "adduct [M+Na]+", "result": 13132954},
      {"measurement": "average intensity of PC 42:9", "setting": "adduct [M+Na]+", "result": 1167997},
      {"measurement": "average intensity of PS 40:7", "setting": "adduct [M+Na]+", "result": 3607887},
      {"measurement": "average intensity of TG 52:2", "setting": "adduct [M+Na]+", "result": 9167552},
      {"measurement": "average intensity of TG 52:4", "setting": "adduct [M+Na]+", "result": 2497450},
      {"measurement": "Z-score of TG 52:3", "setting": "[1]", "result": 0.19},
      {"measurement": "average intensity of TG 52:3", "setting": "[1]", "result": 1036928},
      {"measurement": "Z-score of TG 52:3", "setting": "[2]", "result": 0.18},
      {"measurement": "average intensity of TG 52:3", "setting": "[2]", "result": 8512501},
      {"measurement": "Z-score of Cer 40:1;O2", "setting": "adduct [M-H]-", "result": -0.23},
      {"measurement": "Z-score of Cer 41:1;3O(2OH)", "setting": "adduct [M-H]-", "result": -0.38},
      {"measurement": "Z-score of Cer 42:1;3O(2OH)", "setting": "adduct [M-H]-", "result": -0.39},
      {"measurement": "Z-score of Cer 43:1;3O(2OH)", "setting": "adduct [M-H]-", "result": -0.38},
      {"measurement": "Z-score of FA 10:1", "setting": "adduct [M-H]-", "result": -0.53},
      {"measurement": "Z-score of FA 14:2", "setting": "adduct [M-H]-", "result": 0.22},
      {"measurement": "Z-score of FA 16:2;O", "setting": "adduct [M-H]-", "result": 0.94},
      {"measurement": "Z-score of FA 19:2;O2", "setting": "adduct [M-H]-", "result": 0.68},
      {"measurement": "Z-score of PG 34:2", "setting": "adduct [M-H]-", "result": -0.56},
      {"measurement": "Z-score of PG 44:12", "setting": "adduct [M-H]-", "result": -0.57},
      {"measurement": "Z-score of PI 36:3", "setting": "adduct [M-H]-", "result": -0.53},
      {"measurement": "Z-score of PI 38:4", "setting": "adduct [M-H]-", "result": 0.83},
      {"measurement": "average intensity of Cer 40:1;O2", "setting": "adduct [M-H]-", "result": 383914},
      {"measurement": "average intensity of Cer 41:1;3O(2OH)", "setting": "adduct [M-H]-", "result": 1471085},
      {"measurement": "average intensity of Cer 42:1;3O(2OH)", "setting": "adduct [M-H]-", "result": 280519},
      {"measurement": "average intensity of Cer 43:1;3O(2OH)", "setting": "adduct [M-H]-", "result": 206714},
      {"measurement": "average intensity of FA 10:1", "setting": "adduct [M-H]-", "result": 231265},
      {"measurement": "average intensity of FA 14:2", "setting": "adduct [M-H]-", "result": 1600712},
      {"measurement": "average intensity of FA 16:2;O", "setting": "adduct [M-H]-", "result": 1172357},
      {"measurement": "average intensity of FA 19:2;O2", "setting": "adduct [M-H]-", "result": 7389373},
      {"measurement": "average intensity of PG 34:2", "setting": "adduct [M-H]-", "result": 228532},
      {"measurement": "average intensity of PG 44:12", "setting": "adduct [M-H]-", "result": 36906},
      {"measurement": "average intensity of PI 36:3", "setting": "adduct [M-H]-", "result": 498699},
      {"measurement": "average intensity of PI 38:4", "setting": "adduct [M-H]-", "result": 49874871}
    ]}
  ]
}
